The results in this text go back to PMC9709778 (RSC Chemical Biology, 2022).

This test has as its target amyloid β (Aβ42) (Homo sapiens, UniProt P05067). Briefly: 1H-15N SOFAST-HMQC NMR chemical shift perturbation. In kind it is biochemical.

amyloid β (Aβ42), sequence (P05067 672-713): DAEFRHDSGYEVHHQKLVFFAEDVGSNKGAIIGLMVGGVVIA

In general, IC50 refers to the point on the concentration scale where inhibition reaches its midpoint. With `COc1cc(OC)c(C(=O)/C=C/c2ccccc2)c(O)c1O` [DDC, 2′,3′-dihydroxy-4′,6′-dimethoxychalcone], the 50% inhibitory concentration (IC50) is 10.6 ± 1.3 µM.
